Read-outs that look alike come from different tables or passages of the source.
Columns and labels:
Zta = conditions: SNK6 xenograft, nude mice; intratumoral 50 µM peptide every 2 days from day ~18; tissue day 50; IHC vs CTL; n = 3
Experimental: To measure malignant SNK6 xenograft growth, 100 µl of 1 × 10^5 SNK6 cells in PBS were mixed with 100 µl growth factor-reduced basement membrane matrix (Matrigel™, BD Biosciences) resulting in 200 µl of solution that was injected subcutaneously along the mouse flank at each intended tumor site. Tumor size was measured using a digital caliper and volume was calculated, and mice were randomly divided into four groups (n = 9 per group) when the tumor volume reached 50–100 mm^3 on day ~18 after tumor inoculation and given treatment as follows: Group 1 (control (CTL)) was intratumorally injected with HBSS buffer (5.33 mM KCl, 0.44 mM KH2PO4, 138 mM NaCl, 4 mM NaHCO3, 0.3 mM Na2HPO4, and 5.6 mM glucose, pH 7.3) containing 0.05% DMSO; Group 2 (Tf-D-HKN15) received HBSS buffer containing 0.05% DMSO with 50 µM Tf-D-HKN15 peptides; Group 3 (Tf-D-HKC15) received HBSS buffer containing 0.05% DMSO with 50 µM Tf-D-HKC15 peptides; Group 4 (Tf-D-HKC8) received HBSS buffer containing 0.05% DMSO with 50 µM Tf-D-HKC8 peptides. […] Beginning on the day of inoculation, mouse weight and tumor volume were monitored every 2 days. Mice were monitored for changes in body weight and sacrificed when values fell below 20% of their initial weight; the survival curve was calculated and the final tumor tissues were isolated for biomedical analysis. […]

ABCB1 = experiment: mRNA level by qPCR in SNK6 cells; assay type: cell-based, human; conditions: 0.5 µM peptide, 6 h, vs CTL, n = 4 (Fig. 3f)
Experimental: Fig. 3 Peptide for the last eight aa of HKDC1 at the C-terminal (Tf-D-HKC8) inhibits EBV replication and P-gp expression through ROS generation and DNA damage in ENKTL cells. SNK6 cells were treated with control (CTL), Tf-D-HKN15, Tf-D-HKC15, or Tf-D-HKC8 peptide (0.5 µM) for 6 h and the cells were used for biomedical analysis. a ROS formation, n = 5. b 3-nitrotyrosine (3-NT) formation, n = 5. c 8-OHdG formation, n = 5. d Quantitation of γH2AX formation, n = 5. e Representative western blotting bands for d. f mRNA level by qPCR for BZLF1, BMRF1, and ABCB1, n = 4. g Protein quantitation for Zta, EA-D, and P-gp, n = 5. h Representative pictures of western blots for g. i EBV viral genomes/cell by qPCR, n = 4. *P < 0.05, vs CTL group; ^¶P < 0.05, vs Tf-D-HKC15 group. Results were expressed as mean ± SEM.

SNK6 cells [1] = experiment: Cell proliferation by thymidine incorporation; assay type: cell-based, human; conditions: 0.5 µM peptide, 6 h, vs CTL, n = 5 (Fig. 5a)
Experimental: DNA synthesis by [^3H]-thymidine incorporation. Cell proliferation was evaluated as the rate of DNA synthesis by [^3H]-methylthymidine incorporation (17). […] At the end of the treatment, cells were incubated with serum-free media containing ^3H-methylthymidine (0.5 µCi/well) for 2 hours and then washed twice with PBS. Cellular DNA was precipitated using 10% trichloroacetic acid and solubilized with 0.4M NaOH (0.5 ml/well). Incorporation of ^3H-methylthymidine into the DNA was measured in a scintillation counter and was determined as counts per minute (CPM) (8).

SNK6 cells [2] = conditions: 0.5 µM peptide, 6 h, vs CTL, n = 3 (Fig. 5g)
Experimental: Immunostaining. […] The cells were then washed three times and the FITC labeled anti-mouse secondary antibody (1:100) was added for blotting for another 1 hour. After thorough washing, the slides were visualized and photographed, the nuclei of cells were stained with 4’,6-diamidino-2-phenylindole dihydrochloride (DAPI, #D9542, from Sigma), and the positive Ki-67 cells were quantitated.

SNK6 cells [3] = tested on: SNK6 cells
Excerpt: (§1) We investigated the potential role of HKDC1-based peptides in ENKTL cells that were isolated from the MNCs of ENKTL patients or SNK6 cell line. Three different kinds of HKDC1-based targeting peptides, including the last 15 aa at either the N-terminal (HKN15) or C-terminal (HKC15), or the last eight aa at the C-terminal (HKC8) were selected; four different kinds of cell-penetrating sequences were employed to deliver the HKDC1-based peptides, including Antp (a 16 penetrating residue long sequence from the Drosophila antennapedia-homeodomain), penetration-accelerating segment, TAT (HIV-1 TAT sequence), and Tf (the Tf receptor (TfR) internalization sequence) sequences. All of the aa with the D-configuration (marked as D) were synthesized as retro-inverso peptides. […] We then evaluated the toxic effect of two peptides (including Tf-D-HKC15 and Tf-D-HKC8) on different kinds of primary and cancer cell lines (see details in Table 2). […] We also evaluated the peptide delivery efficiency using ^125I-labeled uptake assay for both Tf-D-HKC8 and Tf-D-HKC15 peptides.
(§2) Measurement of apoptosis and cell death. Apoptosis was evaluated by TUNEL assay using the In Situ Cell Death Detection Kit™ (Roche). Cells were fixed in 4% paraformaldehyde and labeled with TUNEL reagents. Stained cells were photographed by a fluorescence microscope (11). For cell death analysis, the propidium iodide (PI) staining was performed by addition of 6.25 µg/ml of PI to the cells, and cell death was immediately evaluated by FACS analysis (3).

MNCs from ENKTL patients = conditions: read-out: IC50 (µM) ENKTL, half-maximal cell death activity, peptides 0.1–15 µM, 6 h, PI staining, FACS, mean ± SEM, n in cell
Excerpt: as §1, §2

SNK6 cells [4] = experiment: 8-OHdG formation (DNA damage ELISA); assay type: cell-based, human; conditions: 0.5 µM peptide, 6 h, vs CTL, n = 5 (Fig. 3c)
Experimental: Measurement of DNA breaks. 8-OHdG formation was measured using an OxiSelect™ Oxidative DNA Damage ELISA Kit (Cat No. STA320, from Cell Biolabs Inc.) per manufacturers’ instructions. The formation of γH2AX was measured from nuclear extracts by western blotting using H2AX as the input control (8).

SNK6 xenograft = experiment: Mouse survival, Kaplan–Meier analysis; assay type: in vivo; conditions: nude mice, intratumoral 50 µM peptide every 2 days from day ~18, compared with CTL group, n = 9
Experimental: Statistical analysis. The data was given as mean ± SEM; all of the experiments were performed at least in quadruplicate unless otherwise indicated. One-way ANOVA followed by the Bonferroni post hoc test was used to determine statistical significance of different groups. The mouse survival curve was determined through Kaplan-Meier survival analysis using SPSS 22 software, and a P value < 0.05 was considered significant (8).

SNK6 cells [5] = experiment: Apoptosis rate by TUNEL assay; assay type: cell-based, human; conditions: 0.5 µM peptide, 6 h, compared with CTL group, n = 5 (Fig. 4h)
Experimental: as §2

EBV EA-D = experiment: Protein level in xenograft tumor tissue (western blot); assay type: in vivo, mouse; conditions: SNK6 xenograft, nude mice; intratumoral 50 µM peptide every 2 days from day ~18; tissue day 50; western blot vs CTL; n = 5
Excerpt: (§3) Biomedical analysis of tumor tissues.

P-gp = experiment: as above; assay type: in vivo, mouse; conditions: SNK6 xenograft, nude mice; intratumoral 50 µM peptide every 2 days from day ~18; tissue day 50; western blot vs CTL; n = 5
Excerpt: as §3

[6] = read-out: IC50 (µM) SNK6, half-maximal cell death activity, SNK6 cells, peptides 0.1–15 µM, 6 h, PI staining, FACS, mean ± SEM, n in cell (Table 1)

Substance	Zta gene expression on tumor tissues (IHC) (Zta) [%]	ABCB1 mRNA (ABCB1) [%]	thymidine incorporation (SNK6 cells [1]) [%]	cell proliferation by quantitation of Ki-67 positive cells (SNK6 cells [2]) [%]	IC50 (SNK6 cells [3]; [6]) [µM]	IC50 (MNCs from ENKTL patients) [µM]	8-OHdG formation (SNK6 cells [4]) [%]	mouse survival (SNK6 xenograft) [%]	apoptosis rate increase (SNK6 cells [5]) [fold]	EBV EA-D protein in tumor (EBV EA-D) [%]	P-gp protein in tumor (P-gp) [%]	IC50 (SNK6 cells [3]; read-out: Peptide IC50 (µM), cell death, SNK6, Human natural killer/T-cell lymphoma/EBV(+), 0.1–15 µM, 6 h (suspension) or 12 h (adherent cells), PI/FACS, mean ± SEM (Table 2)) [µM]
HAIYPRH-LQQAQKEN [Tf-D-HKC8]	28	27	28	27	0.3 ± 0.2	0.2 ± 0.1	209	335	11.4	38	17	–
HAIYPRH-ITAVAKRLQQAQKEN [Tf-D-HKC15]	64	58	71	70	1.2 ± 0.5	0.9 ± 0.3	157	197	2.91	61	48	1.2 ± 0.3
